Measured values: article PMC10419174, “WR1065 conjugated to thiol-PEG polymers as novel anticancer prodrugs: broad spectrum efficacy, synergism, and drug resistance reversal” (Frontiers in Oncology, 2023)
“And” between values parts separate entries of the source, which are not always exact repeats. Identical values can stand only once. Like-named read-outs stand apart in the source and are kept apart here.

Assays:
[1] = tested on: Strain-2 and Strain-3 NHMECs; assay type: cell-based; settings: for cell growth, % of control cell values: 500 µM
Description: Normal human mammary epithelial cell (NHMEC) strains used to assess potential cytotoxicity of 4SP65 and 1LP65 were established from reduction mammoplasty tissue from a healthy donor (M99005 or ‘Strain-1’) ([53]) or purchased from ATCC (Manassas, VA, USA; batch#70043304 or ‘Strain-2’) or Cell Applications (San Diego, CA, USA; lot#1669 or ‘Strain-3’). Human cancer cell lines including HCC38, MDA-MB-231, A549, National Cancer Institute (NCI)-H460, NCI-H1437, NCI-H1975, DU145, LNCaP, PC3, PANC1, SKOV3, and HL60, which were free of Mycoplasma, were purchased from ATCC. HMESO1, PPMMill, and TOV21G cells, obtained from Dr. Brian Cunniff, were verified to be Mycoplasma negative using the LookOut® Mycoplasma PCR Detection Kit (Sigma-Aldrich) and to match previously annotated DNA fingerprints by the Vermont Integrative Genomics Resource DNA Analysis Facility.
To assess the effects of 4SP65 or 1LP65 on the growth of normal epithelium, experiments were performed using NHMEC strains from differing donors ([53]). Strain-1 NHMECs were plated at 5,000 cells/well in 24-well plates and allowed to reach 50% confluence before treatment with 0-150 µM 4SP65 for 48 h. Cell viability was determined using a hemocytometer and trypan blue exclusion assay. Two other NHMEC strains, exposed to 0-150 µM 4SP65 or 0-500 µM 1LP65 for 48 h, were handled in the same fashion except that viability of cells in 96-well plates was determined using CyQUANT dye. Due to the short life span of these NHMECs, standard curves were not generated and fluorescence readings were used as a surrogate marker of cell number ([54]).

Prostate LNCaP cells = assay: cells
Description: (§1) The percentage of growth inhibition was calculated as follows: […]

A549 NSCLC cells = assay: cells
Description: as §1

Prostate DU145 cells = assay: cells
Description: as §1

NCI-H1437 NSCLC cells = settings: 48-h treatment, amifostine ND = not definable up to 500 µM
Description: as §1

[2] = tested on: Mammary gland HCC38 cells; assay: CyQUANT-NF proliferation assay, 48-h drug treatment; assay type: cell-based
[3] = 48-h treatment, amifostine ND = not definable up to 500 µM
[4] = read-out: LC50, 48-h treatment, amifostine ND = not definable up to 500 µM
[5] = pretreated with 1 mM DFMO for 24 h, then 48 h
[6] = without DFMO pretreatment, 48 h

With COCCOCCOCCOCCOCCOCCSSCCNCCCN.O=C(O)C(F)(F)F.O=C(O)C(F)(F)F [1LP65, m-PEG6-S-S-WR1065] the IC50 ([1]; Strain-2 NHMECs, 48 h, read-out: IC50) was > 500 µM, the IC50 ([1]; Strain-2 and Strain-3, read-out: average IC50 for the two normal cell strains) was > 355 µM and the “cell growth, % of control cell values” ([1]; Strain-2 cells, 48 h) was 19.5%. For the same molecule, the IC50 ([1]; Strain-3 NHMECs, 48 h, read-out: IC50) was 210 µM, the “cell growth, % of control cell values” ([1]; Strain-3 cells, 48 h) was 12.5% and the GI50 (Prostate LNCaP cells; [3]) was 28.3 ± 1.9 µM. The IC50 (Prostate LNCaP cells; [3]) was 44.3 ± 2.8 µM, the LC99 (Prostate LNCaP cells; [3]) was 114 ± 8.4 µM and the TGI (Prostate LNCaP cells; [3]) was 51.7 ± 3.8 µM. For the same molecule, the “Dose reduction value AMF ÷ 1LP65” value (Prostate LNCaP cells; at GI50) was 5.3 fold, the “Dose reduction value AMF ÷ 1LP65” value (Prostate LNCaP cells; at IC50) was 8.5 fold and the CC50 (Prostate LNCaP cells; [4]) was 88.8 ± 7.1 µM. For the same molecule, the CC50 (A549 NSCLC cells) was 155 ± 8 µM, the GI50 (A549 NSCLC cells) was 52.3 µM and 52 µM and the IC50 (A549 NSCLC cells) was 66.6 ± 7.9 µM. The LC99 (A549 NSCLC cells) was 187 ± 11 µM, the TGI (A549 NSCLC cells) was 126 ± 3 µM and 126 µM and the “Dose reduction value AMF ÷ 1LP65” value (A549 NSCLC cells; at GI50) was 5.5 fold. For the same molecule, the “Dose reduction value AMF ÷ 1LP65” value (A549 NSCLC cells; at IC50) was 4.4 fold, the GI50 (A549 NSCLC cells; [5]) was 17.1 µM and the IC50 (A549 NSCLC cells; [5]) was 33.1 µM. It also gave a GI50 (A549 NSCLC cells; [6]) of 38.6 µM, an IC50 (A549 NSCLC cells; [6]) of 51 µM and a GI50 (Prostate DU145 cells; [3]) of 26.3 ± 3.8 µM. The IC50 (Prostate DU145 cells; [3]) was 39.8 ± 3.1 µM, the LC99 (Prostate DU145 cells; [3]) was 83.5 ± 5.5 µM and the TGI (Prostate DU145 cells; [3]) was 52.8 ± 5.3 µM and 52.8 µM. The “Dose reduction value AMF ÷ 1LP65” value (Prostate DU145 cells; at GI50) was 4.8 fold, the “Dose reduction value AMF ÷ 1LP65” value (Prostate DU145 cells; at IC50) was 8.0 fold and the CC50 (Prostate DU145 cells; [4]) was 71.4 ± 4.3 µM. The GI50 (NCI-H1437 NSCLC cells) was 66.2 ± 4.2 µM, the IC50 (NCI-H1437 NSCLC cells) was 74.8 ± 2.1 µM and the LC99 (NCI-H1437 NSCLC cells) was 234 ± 16 µM. It also gave a TGI (NCI-H1437 NSCLC cells) of 109 ± 17 µM, a CC50 (NCI-H1437 NSCLC cells; read-out: LC50) of 157 ± 14 µM and a GI50 [2, 3] of 36.5 ± 2.3 µM. It also gave an IC50 [2, 3] of 47.3 ± 2.2 µM, an LC99 [2, 3] of 83.9 ± 2.9 µM and a TGI [2, 3] of 46.9 ± 2.5 µM. For the same molecule, the CC50 ([2]; 48-h treatment, amifostine ND = not definable up to 500 µM, read-out: LC50 (the source's name)) was 59.9 ± 2.9 µM, the “Dose reduction value AMF ÷ 1LP65” value ([2]; at GI50) was 2.1 fold and the “Dose reduction value AMF ÷ 1LP65” value ([2]; at IC50) was 5.8 fold. For the same molecule, the “Dose reduction value AMF ÷ 1LP65” value ([2]; at TGI) was 5.4 fold.
